Consider eight molecules from US9738634B2, “Heterocyclic amide compound and herbicide” (SYNGENTA PARTICIPATIONS AG, priority 2013, dated 2017).

Type in all cases: in vivo
In one data set the test system is bulrush. The data set can be described thus: Test Example 1: weedkilling efficacy, preemergent weed treatment in the submerged state; B: bulrush. The text has this:
(§1) Weedkilling efficacy test on preemergent weed treatment in the submerged state
(§2) Alluvial soil was introduced into 1/10,000 Are Wagner pots, and 4 cm depth submerged conditions were created by addition of water and mixing. Seeds of barnyard grass, bulrush and oval-leafed pondweed were mixed and sown into the aforesaid cups, then 2.5 leaf stage rice seedlings were transplanted. On the sowing day, emulsions of compounds of the present invention prepared according to compounding example 2 were diluted with water to give the specified dosages and applied onto the water surface. The plants were grown after placing the cups in a greenhouse at 25 to 30° C. 3 weeks after the pesticide treatment the effect on each type of plant was investigated on the basis of the following assessment criteria.
(§3) A: barnyard grass, B: bulrush, C: oval-leafed pondweed, D: crabgrass, E: green foxtail, F: barnyard grass, G: wild oat, H: black-grass, I: Italian ryegrass, J: common wind-grass, K: Indian mallow, L: redroot pigweed, M: fig-leafed goosefoot, N: chickweed, O: catchweed, p: birds-eye speedwell, a: transplanted rice, b: directly sown rice, c: corn, d: soybean, e: wheat, f: beet, g: rapeseed
(§4) Further, pesticide dosage (g/ha) indicates the concentration regulated such that treatment was with only the stated number of grams (g), when calculated per hectare (ha).

A further data set has as its system transplanted rice. The experiment in a line: Test Example 1: preemergent weed treatment in the submerged state, effect on crop; a: transplanted rice.
From the text: as §1, §2, §3, §4

A further data set concerns oval-leafed pondweed. The experiment in a line: Test Example 1: weedkilling efficacy, preemergent weed treatment in the submerged state; C: oval-leafed pondweed.
From the text: as §1, §2, §3, §4

For another data set, the system named is barnyard grass. The experiment in a line: Test Example 1: weedkilling efficacy, preemergent weed treatment in the submerged state; A: barnyard grass.
From the text: as §1, §2, §3, §4

Consider `CC1=C(c2ccnc(F)c2)C(=O)N(C(C)(C)C(=O)Nc2cccc(Cl)n2)CO1` [B-2-21], for which the “B (bulrush) weedkilling efficacy grade” value with bulrush (treatment dosage 252 g/ha) was 5 (weed kill ratio 90% or more, (practically complete withering)). In the data set on transplanted rice (treatment dosage 252 g/ha), the “a (transplanted rice) effect on crop grade” value is reported as 0 (weed kill ratio 5% or less (practically no effect)). For the same molecule, the “C (oval-leafed pondweed) weedkilling efficacy grade” value in the data set on oval-leafed pondweed (treatment dosage 252 g/ha) was 3 (weed kill ratio 40% or more, less than 70%). Also, the “A (barnyard grass) weedkilling efficacy grade” value with barnyard grass (treatment dosage 252 g/ha) is listed as 0 (weed kill ratio 5% or less (practically no effect)).

With `COc1ccc(N2COCN(C(C)(C)C(=O)Nc3cc(C(F)(F)F)ccn3)C2=O)cc1Cl` [A-6-05], the “B: bulrush, weed kill grade” value in the data set on bulrush (treatment dosage 320 g/ha) is recorded as 2 (weed kill ratio 20% or more, less than 40%). Further, in the data set on transplanted rice (treatment dosage 320 g/ha), the “a: transplanted rice, effect on crop grade” value (shortened to “a: transplanted rice, effect”) was 0 (weed kill ratio 5% or less (practically no effect)). Also, the “C: oval-leafed pondweed, weed kill grade” value with oval-leafed pondweed (treatment dosage 320 g/ha) was 2 (weed kill ratio 20% or more, less than 40%). In the data set with barnyard grass (treatment dosage 320 g/ha), the “A: barnyard grass, weed kill grade” value is 2 (weed kill ratio 20% or more, less than 40%).

As to `COc1ccnc(NC(=O)C(C)(C)N2COCN(c3ccccc3)C2=O)c1` [A-2-51], the “B: bulrush, weed kill grade” value with bulrush (treatment dosage 252 g/ha) is recorded as 5 (weed kill ratio 90% or more, (practically complete withering)). Moreover, the “a: transplanted rice, effect” value in the data set on transplanted rice (treatment dosage 252 g/ha) was 0 (weed kill ratio 5% or less (practically no effect)). For the same molecule, in the data set on oval-leafed pondweed (treatment dosage 252 g/ha), the “C: oval-leafed pondweed, weed kill grade” value is given as 2 (weed kill ratio 20% or more, less than 40%). Moreover, the “A: barnyard grass, weed kill grade” value with barnyard grass (treatment dosage 252 g/ha) was 4 (weed kill ratio 70% or more, less than 90%).

Regarding `Cc1cnc(Cl)c(NC(=O)C(C)(C)N2COCN(c3ccccc3)C2=O)c1` [A-3-09], in the data set with bulrush (treatment dosage 252 g/ha), the “B: bulrush, weed kill grade” value is on record as 4 (weed kill ratio 70% or more, less than 90%). Besides, the “a: transplanted rice, effect” value with transplanted rice (treatment dosage 252 g/ha) is on record as 1 (weed kill ratio 5% or more, less than 20%). In addition, the “C: oval-leafed pondweed, weed kill grade” value with oval-leafed pondweed (treatment dosage 252 g/ha) is reported as 0 (weed kill ratio 5% or less (practically no effect)). For the same molecule, the “A: barnyard grass, weed kill grade” value in the data set on barnyard grass (treatment dosage 252 g/ha) is listed as 2 (weed kill ratio 20% or more, less than 40%).

Consider `COC(=O)c1ccnc(NC(=O)C(C)(C)N2COCN(c3ccccc3)C2=O)c1` [A-2-47], for which the “B: bulrush, weed kill grade” value in the data set on bulrush (treatment dosage 320 g/ha) is reported as 4 (weed kill ratio 70% or more, less than 90%). In addition, the “a: transplanted rice, effect” value with transplanted rice (treatment dosage 320 g/ha) was 0 (weed kill ratio 5% or less (practically no effect)). The “C: oval-leafed pondweed, weed kill grade” value with oval-leafed pondweed (treatment dosage 320 g/ha) was 0 (weed kill ratio 5% or less (practically no effect)). Besides, in the data set with barnyard grass (treatment dosage 320 g/ha), the “A: barnyard grass, weed kill grade” value is reported as 2 (weed kill ratio 20% or more, less than 40%).

On to `CC(C)(C(=O)Nc1nc(Cl)ccc1Cl)N1COCN(c2ccccc2)C1=O` [A-2-16], for which the “B: bulrush, weed kill grade” value with bulrush (treatment dosage 252 g/ha) is reported as 5 (weed kill ratio 90% or more, (practically complete withering)). Moreover, in the data set with transplanted rice (treatment dosage 252 g/ha), the “a: transplanted rice, effect” value is 0 (weed kill ratio 5% or less (practically no effect)). Also, the “C: oval-leafed pondweed, weed kill grade” value with oval-leafed pondweed (treatment dosage 252 g/ha) is 2 (weed kill ratio 20% or more, less than 40%). Moreover, the “A: barnyard grass, weed kill grade” value in the data set on barnyard grass (treatment dosage 252 g/ha) is listed as 0 (weed kill ratio 5% or less (practically no effect)).

Consider `CC1=C(c2cncnc2)C(=O)N(C(C)(C)C(=O)Nc2cccc(Cl)n2)CO1` [B-2-22], for which the “B (bulrush) weedkilling efficacy grade” value in the data set with bulrush (treatment dosage 1000 g/ha) is on record as 3 (weed kill ratio 40% or more, less than 70%). In addition, the “a (transplanted rice) effect on crop grade” value in the data set on transplanted rice (treatment dosage 1000 g/ha) is given as 0 (weed kill ratio 5% or less (practically no effect)). The “C (oval-leafed pondweed) weedkilling efficacy grade” value in the data set on oval-leafed pondweed (treatment dosage 1000 g/ha) is reported as 1 (weed kill ratio 5% or more, less than 20%). Besides, the “A (barnyard grass) weedkilling efficacy grade” value in the data set with barnyard grass (treatment dosage 1000 g/ha) is recorded as 3 (weed kill ratio 40% or more, less than 70%).

Regarding `COc1cc(C(F)(F)F)cc(NC(=O)C(C)(C)N2COCN(c3ccccc3)C2=O)n1` [A-2-59], the “B: bulrush, weed kill grade” value in the data set on bulrush (treatment dosage 320 g/ha) is 5 (weed kill ratio 90% or more, (practically complete withering)). In addition, the “a: transplanted rice, effect” value with transplanted rice (treatment dosage 320 g/ha) was 1 (weed kill ratio 5% or more, less than 20%). The “C: oval-leafed pondweed, weed kill grade” value with oval-leafed pondweed (treatment dosage 320 g/ha) was 5 (weed kill ratio 90% or more, (practically complete withering)). The “A: barnyard grass, weed kill grade” value in the data set with barnyard grass (treatment dosage 320 g/ha) is reported as 5 (weed kill ratio 90% or more, (practically complete withering)).
